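1) Cells in 96-well plates. 2) Compound, 48 h, 5 concentrations. 3) Linear interpolation between surrounding doses. 4) Unreached endpoint = highest concentration. TGI: total growth inhibition.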
Experiments:
Assay in all cases: growth of human tumour cells (NCI), 48 h
EKVX NSCLC = test system: EKVX NSCLC
HCT-15 colon = test system: HCT-15 colon
KM12 colon = test system: KM12 colon
MDA-MB-435 = test system: MDA-MB-435
NCI-H23 lung = test system: NCI-H23 lung
NCI/ADR-RES ovarian = test system: NCI/ADR-RES ovarian
SF-268 CNS = test system: SF-268 CNS
SW-620 colon = test system: SW-620 colon
UO-31 renal = test system: UO-31 renal

Row | Structure (SMILES) | TGI (EKVX NSCLC) [µM] | TGI (HCT-15 colon) [µM] | TGI (KM12 colon) [µM] | TGI (MDA-MB-435) [µM] | TGI (NCI-H23 lung) [µM] | TGI (NCI/ADR-RES ovarian) [µM] | TGI (SF-268 CNS) [µM] | TGI (SW-620 colon) [µM] | TGI (UO-31 renal) [µM]
1 | NCCCN1CCN(CCCNc2ccc3ncn4c5ccccc5c(=O)c2c34)CC1 | 9.03 | > 25 | 13.1 | > 25 | 6.98 | > 25 | 6.04 | > 25 | 22.5
2 | C1CN(C23OC4(N5CCOCC5)C5C6CC(C7C6C4C72)C53)CCO1 (stereo not given) | > 100 | > 100 | > 100 | > 100 | > 100 | > 100 | > 100 | > 100 | > 100
3 | CCCCC[C@@H]1OC(=O)[C@@]2(CC3c4ccccc4C2c2ccccc23)[C@H]1C(=O)OC | > 100 | > 100 | > 100 | > 100 | > 100 | > 100 | > 100 | > 100 | > 100
4 | CCOC(=O)C1C2C1C1C(C(=O)OCC)C21 (stereo not given) | > 100 | > 100 | > 100 | > 100 | > 100 | > 100 | > 100 | > 100 | > 100
5 | O=C(O)c1cc2c(cc1CC(Cc1ccccc1)C(=O)O)CCC2 (stereo not given) | > 100 | > 100 | > 100 | > 100 | > 100 | > 100 | > 100 | > 100 | > 100
6 | COc1ccc(C2=C(N)c3ccccc3C2=O)cc1 | > 100 | > 100 | > 100 | > 100 | > 100 | > 100 | > 100 | > 100 | –
7 | CCCS(=O)OC1C(C2COC(C)(C)O2)OC2OC(C)(C)OC21 (stereo not given) | 32 | 41.6 | 28.2 | 23.4 | 23.4 | 46.1 | 62.4 | 32.8 | 28.3
8 | Fc1ccccc1C1SCC2=Nc3ccccc3CN21 (stereo not given) | > 100 | > 100 | > 100 | > 100 | > 100 | > 100 | > 100 | > 100 | > 100
9 | CN1C(C(=O)Nc2ccccn2)=C(O)c2ccccc2S1(=O)=O | > 100 | > 100 | > 100 | > 100 | > 100 | > 100 | > 100 | > 100 | > 100

Source: PubChem BioAssay (NCI)
